Assay [1] concerns S. cerevisiae EG103 (SOD-WT). Put plainly: Yeast survival assay, EG103 (SOD-WT). The format is cell-based, Saccharomyces cerevisiae. As to conditions: positive control H2O2 5 mM, 1 h in PBS. Here is the method:
(§1) Media, solutions and buffers were prepared according to Burke et al.. YPD medium (0.5% yeast extract, 2% peptone, 2% glucose) was used for routine growth. Synthetic medium SC (0.67% yeast nitrogen base, 0.1% ammonium sulfate, 2% glucose) supplemented with the appropriate amino acids and bases ([…]) was used for the detection of mutations.
(§2) Stationary phase (STAT) cultures were obtained by inoculation of a single colony into liquid YPD. We chose to work in the stationary phase of growth because this resembles most cells of multicellular organisms in important aspects: (i) most energy comes from mitochondrial respiration; (ii) the cells have left the active cell cycle and have entered the Go phase; and (iii) damage accumulates over time.
(§3) STAT cells (1 × 10^8 cells/mL) were exposed to TTHL (10–500 μg/mL) and incubated under growth conditions for 1 h in PBS at 30°C. Cells were then washed and treated with H2O2 (5 mM) in PBS for another hour. Suitable aliquots were plated in triplicate on solid YPD (2–3 days, 30°C) and colony-forming units were counted. Sensitivity was expressed as a percentage of survival in relation to the negative control (solvent).

The subject of assay [2] is S. cerevisiae EG118 (sod1Δ). As to the kind of experiment: Yeast survival assay, EG118 (sod1Δ). The format is cell-based, Saccharomyces cerevisiae. The note with it: positive control H2O2 5 mM, 1 h in PBS. Here is the method:
as §1, §2, §3

The test system of assay [3] is S. cerevisiae EG110 (sod2Δ). As to the kind of experiment: Yeast survival assay, EG110 (sod2Δ). It is filed as cell-based, Saccharomyces cerevisiae. As to conditions: positive control H2O2 5 mM, 1 h in PBS. The method, then: as §1, §2, §3
Assay [4] deals with S. cerevisiae EG133 (sod1Δsod2Δ). As to the kind of experiment: Yeast survival assay, EG133 (sod1Δsod2Δ). The format is cell-based, Saccharomyces cerevisiae. The note with it: positive control H2O2 5 mM, 1 h in PBS. The method, then: as §1, §2, §3
Assay [5] deals with MRC5 (lung normal fibroblast). Put plainly: XTT cell viability assay, MRC5 normal fibroblasts. The note with it: Homo sapiens, MRC5, 24 h treatment. It is filed as cell-based. Here is the method:
(§4) The human cell lines MCF-7 (breast adenocarcinoma), HepG2 (hepatoma), T24 (bladder cancer), CACO-2 (colorectal adenocarcinoma) and MRC5 (lung normal fibroblast) were obtained from the Rio de Janeiro Cell Bank (Rio de Janeiro, RJ, Brazil). The HCT116 cell (colorectal carcinoma), and HT29 cell (colorectal adenocarcinoma) were kindly provided by Dr. Annette K. Larsen (Institut National de la Santé et de la Recherche Médicale - INSERM, Paris, França). All cell lines except MCF-7 were grown in DMEM supplemented with 10% or 20% (for CACO-2) FBS, 100 units.mL^-1 penicillin and 100 μg.mL^-1 streptomycin at 37°C in a humidified atmosphere of 5% CO2. MCF-7 cells were maintained in RPMI-1640 supplemented with 20% FBS at the same conditions described above.
(§5) The cytotoxic potential of the TTHL was evaluated by the XTT assay in human tumor cell lines as well as in MRC5 normal fibroblasts. Cells (1 × 10^4 cells) were seeded on 96-well plates in growth medium and incubated overnight. Afterwards, TTHL (0.5, 1.0, 2.5, 5.0, and 10 μg/mL) was added to each well and incubated for 24, 48, 72, and 120 h. Mitoxantrone, a cytostatic anthracenedione that intercalates in DNA and increases the incidence of double-strand breaks by stabilizing the cleavable complex of topoisomerase II and DNA, was used as positive control. At the end of each treatment, cell viability was assessed according to the manufacturer’s instructions. Briefly, after discarding the medium, 1 mL of XTT labeling mixture was added to the cells and incubated for 2 h at 37°C. Absorbance was measured with a SpectraMax reader (Bio-Rad, USA) at a test wavelength of 492 nm (A492) and a reference wavelength of 690 nm (A690). The final result corresponds to A492-A690. The absorbance of negative control cells was set as 100% viability, and the values for treated cells were calculated as a percentage of the control.
(§6) The IC20, IC50, and IC80 values and their 95% confidence intervals (CI 95%) were obtained by nonlinear regression using GraphPad Prism v5 program (Intuitive Software for Science, San Diego, CA, USA). Selective index (SI) was calculated by IC50 in MRC5 cells/IC50 in tumoral cells. All experiments were independently repeated at least three times, with triplicate samples for each treatment. Results are expressed as means ± standard deviation (SD). Data were analyzed by one-way analysis of variance (ANOVA), and means were compared using Tukey test, with P ≤ 0.05 considered as statistically significant.
A general note: Tetrazolium dyes change colour on reduction, which living cells bring about.

Assay [6] deals with MCF-7 (breast adenocarcinoma). As to the kind of experiment: XTT cell viability assay, MCF-7. It is filed as cell-based, human. As to conditions: Homo sapiens, MCF7; MCF-7, 24 h treatment, XTT. The method, then: as §4, §5, §6
A further assay concerns HepG2 (hepatoma). As to the kind of experiment: XTT cell viability assay, HepG2. The note with it: Homo sapiens; HepG2, 24 h treatment, XTT. The format is cell-based, human. The method, then:
as §4, §5, §6

The next assay deals with T24 (bladder cancer). Put plainly: XTT cell viability assay, T24. The format is cell-based, human. The note with it: Homo sapiens; T24, 24 h treatment, XTT. The method, then: as §4, §5, §6
For assay [7], the system named is HCT116 cell (colorectal carcinoma). As to the kind of experiment: XTT cell viability assay, HCT116. The format is cell-based, human. The note with it: Homo sapiens, HCT-116; HCT116, 24 h treatment, XTT. Here is the method: as §4, §5, §6
Assay [8] has as its system HT29 cell (colorectal adenocarcinoma). As to the kind of experiment: XTT cell viability assay, HT29. The format is cell-based, human. The note with it: Homo sapiens, HT-29; HT29, 24 h treatment, XTT. The method, then:
as §4, §5, §6

In assay [9] the test system is CACO-2 (colorectal adenocarcinoma). Put plainly: XTT cell viability assay, CACO-2. As to conditions: Homo sapiens; CACO-2, 24 h treatment, XTT. It is filed as cell-based, human. Here is the method:
as §4, §5, §6

The next assay concerns tumor cell lines. Put plainly: XTT cell viability assay, panel of tumor cell lines. The format is cell-based. The note with it: Homo sapiens, read-out: IC50 values in tumor cell lines (range over the panel). The method, then:
as §4
The cytotoxic potential of the TTHL was evaluated by the XTT assay in human tumor cell lines as well as in MRC5 normal fibroblasts. Cells (1 × 10^4 cells) were seeded on 96-well plates in growth medium and incubated overnight. […] At the end of each treatment, cell viability was assessed according to the manufacturer’s instructions. […] Absorbance was measured with a SpectraMax reader (Bio-Rad, USA) at a test wavelength of 492 nm (A492) and a reference wavelength of 690 nm (A690). […] The absorbance of negative control cells was set as 100% viability, and the values for treated cells were calculated as a percentage of the control. […]

The structures appear in SMILES notation. Values after ≈ are worked out from the molar mass of the structure shown.

In the case of `OO` [H2O2, hydrogen peroxide, reference compound], the “survival (percentage in relation to negative control)” value in assay [1] turned out to be 63.03 ± 4.12%; in assay [2] it was 16.27 ± 4.88%; in assay [3], 19.10 ± 4.03%; in [4], 19.33 ± 2.10%.
As usually defined, the IC50 is the concentration that gives 50% inhibition. With `O=C1c2c(O)ccc(O)c2C(=O)c2c(NCCNCCO)ccc(NCCNCCO)c21` [MXT, mitoxantrone, reference compound], the IC50 in [5] was 2.88 ± 1.44 µg/mL (≈ 6.48 µM); in assay [6] it was 0.87 ± 1.59 µg/mL (≈ 1.96 µM); in the assay on HepG2 (hepatoma) it was 3.5 ± 0.39 µg/mL (≈ 7.87 µM); in the assay with T24 (bladder cancer), 2.5 ± 0.62 µg/mL (≈ 5.62 µM); in [7], 0.61 ± 0.67 µg/mL (≈ 1.37 µM); in assay [8], 0.88 ± 2.33 µg/mL (≈ 1.98 µM). Moreover, the IC50 was 2.4 ± 1.81 µg/mL (≈ 5.4 µM) in assay [9] and 0.61 to 3.5 µg/mL (≈ 1.37 to 7.87 µM) with tumor cell lines.

(Values after paper PMC4129108, “The natural triterpene 3β,6β,16β-trihydroxy-lup-20(29)-ene obtained from the flowers of Combretum leprosum induces apoptosis in MCF-7 breast cancer cells” (BMC Complementary and Alternative Medicine, 2014).)
